Measured values reported in patent US8110681B2, “Compounds for the treatment of spinal muscular atrophy and other uses” (The United States of America as represented by the …, priority 2006, dated 2012).
Where two headings read alike, the source gives them in different places.

Test system: SMN2-linked luciferase-reporter gene construct
Test: SMN splice reporter assay (SMN2-linked luciferase reporter, Example 10)
Type: cell-based
Settings: for maximal fold induction: read-out: SMN Splice Reporter Assay (Example 10) Avg MaxFold Increase
Source text: Cervical carcinoma cell lines were transformed with a SMN2-linked luciferase-reporter gene construct. The reporter is designed to detect shifts in the alternative splicing of SMN2 sequences. In particular, the reporter is constructed as a fusion of the alternatively spliced sequences of the SMN2 gene and the luciferase gene. Luciferase sequences are in the correct translational reading frame only when the SMN2 sequences are spliced according to the normal SMN1 mechanism (e.g., splicing to include exon 7), which allows for translation of the stable SMN protein. Compounds were tested in the assay by administering the compound to the cell line and detecting an increase in the luciferase activity. The assay is described in greater detail in Zhang et al., Gene Ther., 8, 1532-8 (2001). Compounds were administered as described in Lunn et al, Chem. & Biol, 11, 1489-1493 (2004).
The results are reported as a fold-increase over a baseline reading of transformed cells without any test compound.

[1] = maximum fold increase of reporter signal, average
[2] = SMN2-linked luciferase reporter, average maximum fold increase
[3] = SMN2-linked luciferase reporter, average

CC(C(=O)OC(C)(C)C)c1ccc(N2Cc3ccc(-c4cccs4)cc3C2=O)cc1 (stereo not drawn) [ALB-112474]
maximal fold induction [1]: 1.18

CC(C(=O)O)c1ccc(N2Cc3ccc(-c4cccnc4)cc3C2=O)cc1 (stereo not drawn) [ALB-112514]
maximal fold induction [1]: 1.25

COc1cc2c(cc1O)CN(c1ccc(C(C)C)cc1)C2=O [ALB-118035]
maximal fold induction [2]: 1.13

C=Cc1ccc2c(c1)C(=O)N(c1ccc(C(C)C(=O)O)cc1)C2 (stereo not drawn) [ALB-113965]
EC50 [3]: 79 nM | maximal fold induction [1]: 1.83

COc1cc2c(c(OC)c1Br)C(=O)N(c1ccc(C(C)C)cc1)C2 [ALB-117901]
maximal fold induction [1]: 1.07

CC(C(=O)O)c1ccc(N2Cc3c(C#N)cccc3C2=O)cc1 (stereo not drawn) [ALB-112351]
maximal fold induction [1]: 1.21

CC(C(=O)OC(C)(C)C)c1ccc(N2Cc3ccccc3C2=O)c(Br)c1 (stereo not drawn) [ALB-111998]
maximal fold induction [1]: 1.04

CC(C(=O)O)c1ccc(N2Cc3ccccc3C2=O)c(-c2ccc(Cl)cc2)c1 (stereo not drawn) [ALB-112164]
maximal fold induction [1]: 1.05

CC(C(=O)OC(C)(C)C)c1ccc(N2Cc3cc(-c4ccc(Cl)c(Cl)c4)ccc3C2=O)cc1 (stereo not drawn) [ALB-111854]
maximal fold induction [1]: 1.04

COc1ccc2c(c1)CN(c1ccc(C(C)C)cc1)C2=O [ALB-117453]
EC50 [3]: 180 nM | maximal fold induction [1]: 1.28

CC(C(=O)O)c1ccc(N2Cc3cc(F)ccc3C2=O)cc1 (stereo not drawn) [ALB-113754]
EC50 [3]: 142 nM | maximal fold induction [1]: 1.7

CC(C(=O)O)c1ccc(N2Cc3cc(-c4ccccc4)ccc3C2=O)cc1 (stereo not drawn) [ALB-111993]
EC50 [3]: 2950 nM | maximal fold induction [1]: 1.54

O=C1c2cc(Br)ccc2CN1c1ccc(C2CC2)cc1 [ALB-115718]
EC50 [3]: 22 nM | maximal fold induction [1]: 1.32

CC(C)c1ccc(N2Cc3cc(Br)ccc3C2=O)cc1 [ALB-115810]
EC50 [3]: 145 nM | maximal fold induction [1]: 1.44

CC(C(=O)OC(C)(C)C)c1ccc(N2Cc3ccccc3C2=O)c(-c2cncnc2)c1 (stereo not drawn) [ALB-112194]
maximal fold induction [1]: 1.1

CC(C(=O)OC(C)(C)C)c1ccc(N2Cc3cc(-c4ccccc4)ccc3C2=O)cc1 (stereo not drawn) [ALB-111888]
maximal fold induction [1]: 1.1

CC(C(=O)O)c1ccc(N2Cc3ccc(-c4ccc(Cl)c(Cl)c4)cc3C2=O)cc1 (stereo not drawn) [ALB-112516]
maximal fold induction [1]: 1.2

CC(C(=O)O)c1ccc(N2Cc3c(Br)cccc3C2=O)cc1 (stereo not drawn) [ALB-112066]
EC50 [3]: 21800 nM | maximal fold induction [1]: 1.12

CC(C(=O)O)c1ccc(N2Cc3ccc(-c4ccccc4)cc3C2=O)cc1 (stereo not drawn) [ALB-112446]
EC50 [3]: 1700 nM | maximal fold induction [1]: 1.45

Cc1ccc2c(c1)C(=O)N(c1ccc(C3CCCC3)cc1)C2 [ALB-116073]
maximal fold induction [2]: 1.08

O=C1c2ccccc2CN1c1ccc(C2(C(=O)O)CCCC2)cc1 [ALB-112431]
maximal fold induction [1]: 1.21

CC(C)Oc1ccc2c(c1)CN(c1ccc(C(C)C(=O)O)cc1)C2=O (stereo not drawn) [ALB-113834]
maximal fold induction [1]: 1.1

COc1cccc2c1C(=O)N(c1ccc(C(C)C)cc1)C2 [ALB-117748]
EC50 [3]: 166 nM | maximal fold induction [1]: 1.34

CC(C(=O)OC(C)(C)C)c1ccc(N2Cc3cccc(Cl)c3C2=O)cc1 (stereo not drawn) [ALB-111783]
EC50 [3]: 1560 nM | maximal fold induction [1]: 1.13

CC(C(=O)OC(C)(C)C)c1ccc(N2Cc3cccc(C#N)c3C2=O)cc1 (stereo not drawn) [ALB-112472]
maximal fold induction [1]: 1.12

COCC(C)(C)c1ccc(N2Cc3ccc(OC)cc3C2=O)cc1 [ALB-115706]
EC50 [3]: 660 nM | maximal fold induction [1]: 1.26

COCc1ccc2c(c1)C(=O)N(c1ccc(C(C)C(=O)O)cc1)C2 (stereo not drawn) [ALB-114439]
EC50 [3]: 52 nM | maximal fold induction [1]: 1.51

Cc1ccc(-c2cc(C(C)C(=O)OC(C)(C)C)ccc2N2Cc3ccccc3C2=O)cc1 (stereo not drawn) [ALB-112081]
maximal fold induction [1]: 1.03

CC(C(=O)OC(C)(C)C)c1ccc(N2Cc3ccccc3C2=O)c(-c2ccccc2)c1 (stereo not drawn) [ALB-112163]
maximal fold induction [1]: 1.03

CC(C(=O)O)c1ccc(N2Cc3ccc(I)cc3C2=O)cc1 (stereo not drawn) [ALB-115216]
EC50 [3]: 75 nM | maximal fold induction [1]: 1.87

CC(C)(C(=O)O)c1ccc(N2Cc3ccccc3C2=O)cc1 [ALB-111796]
EC50 [3]: 3520 nM | maximal fold induction [1]: 1.22

CC(C)c1ccc(N2Cc3ccc(N)cc3C2=O)cc1 [ALB-115805]
EC50 [3]: 99 nM | maximal fold induction [1]: 1.42

CCOc1ccc2c(c1)CN(c1ccc(C(C)C(=O)O)cc1)C2=O (stereo not drawn) [ALB-113649]
maximal fold induction [1]: 1.13

CC(C(=O)OC(C)(C)C)c1ccc(N2Cc3cccc(-c4ccccc4)c3C2=O)cc1 (stereo not drawn) [ALB-112150]
maximal fold induction [1]: 1.1

C[C@H](C(=O)O)c1ccc(N2Cc3ccccc3C2=O)cc1 [ALB-112837]
EC50 [3]: 8540 nM | maximal fold induction [1]: 1.4

CC(C(=O)O)c1ccc(N2Cc3ccccc3C2=O)cc1-c1cccs1 (stereo not drawn) [ALB-112084]
maximal fold induction [1]: 1.11

COc1cc2c(cc1F)CN(c1ccc(C(C)C(=O)O)cc1)C2=O (stereo not drawn) [ALB-119048]
EC50 [3]: 255 nM | maximal fold induction [1]: 1.54
